Laboratory results as given in patent publication EP1121940A1, “Pharmaceutical compositions comprising an antibiotic and bromhexine, and process for their preparation” (New Pharma Research Sweden AB, priority 2000, dated 2001).

Assays:
[1] = solutions of pH greater than six; cited from earlier work
[2] = test system: Escherichia coli; assay: Efficacy in the treatment of Escherichia coli infected chickens; type: in vivo, broiler chickens; details: oral via drinking water, three consecutive days, recorded over ten days following treatment
Description: (§1) The aim of this study was to evaluate the effect of a treatment with a composition in accordance with the present invention on the mortality and clinical signs of chickens naturally infected by Escherichia coli, and to compare the efficacy of this treatment with the efficacy of a treatment with a composition containing only the antibiotic.
10 000 broiler chickens aged 1 day were used for the experiment. The birds were infected by natural infection by Escherichia coli.
(§2) The birds were then divided into 2 equal groups of 5 000 birds each. The first group was treated with a composition containing only enrofloxacin. The second group was treated with the composition of Example 1 of the present invention, containing both enrofloxacin and bromhexine-HCl. Thus, 1 ml of composition contained either 200 mg of enrofloxacin (composition for the treatment of the first group) or 200 mg of enrofloxacin and 10 mg of bromhexine-HCl (composition for the treatment of the second group).
For both groups, the treatment was made orally, for three consecutive days, and using the drinking water, at a dose of 1 ml of active composition per 4 litres of drinking water.
To assess the efficacy of the treatment, the mortality and body weight of the animals were recorded for each group over a period of ten days following the treatment.

[3] = test system: pneumonia infection; assay: Efficacy in the treatment of calves suffering from a pneumonia infection; type: in vivo; details: intramuscular injection once a day for four consecutive days, results after 5 days
Description: as §1, with “calves suffering from a pneumonia infection,” for “chickens naturally infected by Escherichia coli,”
20 calves aged 1 to 4 months were used for the experiment. The animals were suffering from a pneumonia infection, characterized by severe respiratory disorders including coughing, rale and increased body temperature (measured between +39.5°C and +41°C).
as §2, with “calves” for “birds”, “were” for “were then”, “10 animals” for “5 000 birds”, “invention, i.e.” for “invention,”
For both groups, the treatment was made by intramuscular injection, once a day and for four consecutive days, at a dose of 1 ml of active composition per 80 kg of animal body weight.
To assess the efficacy of the treatment, the mortality and body temperature of the animals were recorded for each group over a period of ten days following the treatment.

SMILES | precipitation in solutions [1] | Mortality % ([2]; 1 ml composition per 4 litres) [%] | Mortality dead birds ([2]; 1 ml composition per 4 litres, 5000 birds per group) | Weight g/bird [2] [g/bird] | Mortality % ([3]; 1 ml per 80 kg body weight) [%] | Mortality dead animals ([3]; 1 ml per 80 kg body weight, 10 calves per group) | Body temperature [3]
CN(Cc1cc(Br)cc(Br)c1N)C1CCCCC1.Cl [Bromhexine-HCl, N-(2-amino-3,5-dibromobenzyl)-N-methyl-cyclohexylamine hydrochloride] | precipitate |  |  |  |  |  | 
CCN1CCN(c2cc3c(cc2F)c(=O)c(C(=O)O)cn3C2CC2)CC1 [Enrofloxacine, 1-cyclopropyl-7-(4-ethyl-1-piperazinyl)-6-fluoro-1,4-dihydro-4-oxo-3-quinoline carboxylic acid] |  | 2.23 | 113/5000 | 1810 | 10 | 1/10 | over 41.5 °C
